Data reported in ChEMBL document CHEMBL1141066, “Acetylenic TACE inhibitors. Part 2: SAR of six-membered cyclic sulfonamide hydroxamates” (Bioorg Med Chem Lett, 2005).

Tests used:
Collagenase 3 = Collagenase 3 (Homo sapiens, UniProt P45452); assay: Inhibitory activity against matrix metallopeptidase 13
THP-1 = assay: Percentage inhibition of TNF production in LPS-stimulated THP-1 cells; format: functional, Homo sapiens
Interstitial collagenase = target: T1, Interstitial collagenase (Homo sapiens, UniProt P03956); assay: Inhibitory activity against matrix metallopeptidase 1
T1 sequence (P03956 whole entry): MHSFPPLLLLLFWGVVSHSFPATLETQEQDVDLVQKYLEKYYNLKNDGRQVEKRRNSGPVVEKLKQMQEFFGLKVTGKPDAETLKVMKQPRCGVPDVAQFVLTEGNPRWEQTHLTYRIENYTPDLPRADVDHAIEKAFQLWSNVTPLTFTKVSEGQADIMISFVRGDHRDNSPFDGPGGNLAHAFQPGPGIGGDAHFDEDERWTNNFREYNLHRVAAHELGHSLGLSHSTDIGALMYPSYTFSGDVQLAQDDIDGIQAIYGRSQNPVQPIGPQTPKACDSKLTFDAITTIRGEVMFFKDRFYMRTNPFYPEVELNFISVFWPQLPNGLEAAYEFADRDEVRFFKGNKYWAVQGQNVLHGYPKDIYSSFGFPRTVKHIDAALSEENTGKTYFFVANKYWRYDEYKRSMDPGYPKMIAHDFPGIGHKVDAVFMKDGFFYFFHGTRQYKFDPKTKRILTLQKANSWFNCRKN

[1] = target: Disintegrin and metalloproteinase domain-containing protein 17 (Homo sapiens, UniProt P78536); assay: Inhibitory activity against TACE[ADAM metallopeptidase domain 17] in isolated enzyme assay
Chain of Disintegrin and metalloproteinase domain-containing protein 17 (P78536 whole entry, the tested form may be a part): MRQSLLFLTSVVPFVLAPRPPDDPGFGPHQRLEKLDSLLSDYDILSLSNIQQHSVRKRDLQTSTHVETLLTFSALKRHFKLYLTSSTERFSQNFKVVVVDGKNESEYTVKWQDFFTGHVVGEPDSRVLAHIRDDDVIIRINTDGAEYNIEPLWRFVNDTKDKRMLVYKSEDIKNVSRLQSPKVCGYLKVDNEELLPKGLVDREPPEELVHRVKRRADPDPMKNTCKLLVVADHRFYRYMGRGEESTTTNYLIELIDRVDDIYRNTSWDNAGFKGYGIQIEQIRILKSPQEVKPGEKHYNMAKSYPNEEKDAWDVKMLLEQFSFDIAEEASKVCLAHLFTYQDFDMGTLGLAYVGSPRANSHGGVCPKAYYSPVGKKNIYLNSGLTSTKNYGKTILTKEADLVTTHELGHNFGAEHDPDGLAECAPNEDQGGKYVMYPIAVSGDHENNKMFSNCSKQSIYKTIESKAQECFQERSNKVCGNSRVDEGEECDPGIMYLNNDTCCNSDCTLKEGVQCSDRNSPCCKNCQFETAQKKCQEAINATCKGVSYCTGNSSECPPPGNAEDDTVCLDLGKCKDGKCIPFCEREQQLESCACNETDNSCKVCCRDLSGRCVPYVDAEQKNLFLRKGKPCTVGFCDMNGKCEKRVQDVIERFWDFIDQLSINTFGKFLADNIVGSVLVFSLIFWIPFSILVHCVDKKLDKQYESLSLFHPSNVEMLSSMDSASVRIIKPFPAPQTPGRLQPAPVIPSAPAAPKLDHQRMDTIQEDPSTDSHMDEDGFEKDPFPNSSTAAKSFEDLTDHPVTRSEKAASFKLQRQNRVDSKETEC

| Compound | IC50 (Collagenase 3) | IC50 [1] | further results |
| --- | --- | --- | --- |
| CC#CCOc1ccc(S(=O)(=O)N2CCN(C(=O)OC)CC2C(=O)NO)cc1 (configuration not stated) | 9 nM | – | – |
| CC#CCOc1ccc(S(=O)(=O)N2CCN(S(C)(=O)=O)CC2C(=O)NO)cc1 (configuration not stated) | 6 nM | – | – |
| CC#CCOc1ccc(S(=O)(=O)N2CCNCC2C(=O)NO)cc1 (configuration not stated) | 8 nM | – | Inhibition (THP-1): 71% |
| CC#CCOc1ccc(S(=O)(=O)N2CCSC(C)(C)C2C(=O)NO)cc1 (configuration not stated) | – | – | IC50 (Interstitial collagenase): 7 nM |
| CC#CCOc1ccc(S(=O)(=O)N2CCSCC2C(=O)NO)cc1 (configuration not stated) | – | 3 nM | – |
| CC#CCOc1ccc(S(=O)(=O)N2CCOCC2C(=O)NO)cc1 (configuration not stated) | – | 5 nM | – |
